Results from patent US20250280826A1, “PLANT GROWTH PROMOTER” (KAO CORPORATION, priority 2022, published 2025).

Columns and labels:
Assay type in all cases: in vivo
chickpea = assay: Example 7: initial growth index in chickpea (above-ground part dry weight); conditions: ascorbic acid 1 500 mass ppm, tap water vs deionized water
Experimental: Medium-term fertilizer effect type culture soil (Takii hydrous cell medium-term fertilizer effect type, Takii & Co., Ltd.) and vermiculite grains (Akagi-Engei Co., Ltd.) were mixed at a volume ratio of 1:1, and the soil was placed in a polypot (diameter: 10.5 cm, height: 9 cm). The chickpea used was seeds of Kabuli species (purchased from Nikko Seed Co. Ltd.). After tap water was supplied in an amount of 250 mL per pot, 2 seeds per pot were each sown at a depth of from about 1 to 2 cm from the soil surface. The number of repeats in each test plot was 6 (n=6). […]
The cultivation conditions and the foliar spray treatment method were the same as those in Example 6 (example of azuki bean). The evaluated test plots 1 to 4 are as follows.
On day 28 after sowing, the plant body was dried at 90° C. for 24 hours, and the above-ground part dry weight of the plant body was then measured. • 1 plot: control (no application) • 2 plot: foliar spray of 1 500 mass ppm ascorbic acid (dissolved in tap water) • 3 plot: foliar spray of 1 500 mass ppm ascorbic acid (dissolved in deionized water) • 4 plot: foliar spray of 1 500 mass ppm ascorbic acid+1 mass ppm BHT+50 mass ppm isobutyl alcohol+350 mass ppm sorbitan monolaurate (dissolved in tap water) […]

soybean [1] = assay: Example 2: soybean nodule weight one week after foliar spray
Experimental: Medium-term fertilizer effect type culture soil (Takii hydrous cell medium-term fertilizer effect type, Takii & Co., Ltd.) and vermiculite grains (Akagi-Engei Co., Ltd.) were mixed at a volume ratio of 1:1, and the soil was placed in a polypot (diameter: 10.5 cm, height: 9 cm). The soybean seeds used were “Enrei” (purchased from Nikko Seed Co. Ltd.). After tap water was supplied in an amount of 250 mL per pot, 2 seeds per pot were each sown at a depth of from about 1 to 2 cm from the soil surface. The number of repeats in each test plot was 6 (n=6).
1.5% agar (Wako Pure Chemical Industries, Ltd.) was added to Yeast-Mannitol (YM) medium (0.5 g of K2HPO4, 0.2 g of MgSO4-7H2O, 0.1 g of NaCl, 0.4 g of yeast extract, 10 g of mannitol, and 1 L of distilled water (pH: 6.8)) to prepare a solid medium, and a soybean Rhizobium (Bradyrhizobium japonicum) NBRC14783T strain was grown on the solid medium. A platinum loop of the grown Rhizobium was taken and inoculated in 50 mL of YM liquid medium in a Sakaguchi flask with a volume of 500 mL, and shake-cultured at 30° C. for about 36 hours. A Rhizobium culture solution whose value of turbidity OD600 of bacterial cells was about 0.3 was prepared. […]
The mean and the standard deviation were calculated from the data of four repeats, excluding the highest and the lowest values from the six repeats in each test plot.

soybean [2] = assay: Example 3: soybean nodule activity, mixing ratio of ascorbic acid and antioxidant; conditions: ascorbic acid dissolved in tap water, in comparison to no application
Experimental: The items of the preparation of soil and sowing, the inoculation of Rhizobium, the exudate collection method for measuring the amount of ureide nitrogen, which serves as an indicator of nodule activity, the experimental operation before quantification of exudate, the equipment and measurement method used for quantification of the amount of ureide nitrogen, and the standard products used and quantification were the same as those in Example 2, and the cultivation of soybean was carried out for 21 days.
The cultivation was carried out in an artificial weather apparatus (LPH-411SP, Nippon Medical & Chemical Instruments Co., Ltd.), with the light condition of a light period (light intensity from […]) of 16 hours/a dark period of 8 hours, the temperature of 30° C. for the light period/25° C. for the dark period, and a humidity of 50%. On day 7 after sowing, the plants were thinned so as to be one plant per pot. Watering was carried out by adding water to a vat placed under the pot so that about 5 cm of the lower part of the pot would be submerged after the vat had run out of water.
The spraying solutions shown in Table 4 below were prepared in the same manner as in Example 2, and 6.7 mL of each was sprayed per plant using a mister an day 14 after sowing. Foliar spray was carried out only once, and 7 types of test plots were examined (Table 4). […]

## O=C1O[C@H]([C@@H](O)CO)C(O)=C1O [ascorbic acid, (R)-3,4-dihydroxy-5-((S)-1,2-dihydroxyethyl)furan-2(5H)-one]
chickpea
  effects on the initial growth index: varied in accordance with the water quality
Soybean [1]; ascorbic acid 1,500 ppm dissolved in deionized water, soybean early growth stage
  nodule weight: increased
Soybean [1]; ascorbic acid 1,500 ppm dissolved in tap water
  application effect of ascorbic acid (nodule weight): tended to decrease
Soybean [2]
  nodule activity (allantoin and allantoic acid in exudate): did not change or rather decreased
